According to patent US20040039041A1, “Prevention of development of dyskinesias” (priority 2003, published 2004):

Tests used:
[1] = system: C57BL/6J strain male mice; experiment: Locomotor activity after different drug treatments at day 9 in the chronic treatment groups; type: in vivo
Method: (§1) Experiments were performed with C57BL/6J strain male mice from Jackson Laboratories. Mice were transferred to laboratory at least 2 weeks prior to use. The mice were from 8 to 20 weeks of age at the beginning of an experiment. Groups of 10 mice were housed in standard polypropylene cages (38×22×15 cm) with free access to standard certified pelleted food (RM1 Maintenance Expanded SQC; Special Diet Services, Essex, UK) and water. Ambient temperature was 22±1 C°, and a 12:12 h light/dark cycle was maintained with lights on at 6 A.M. All experiments were carried out between 7 A.M. and 5 P.M. The animal care was performed in accordance with International Council for Laboratory Animal Science (ICLAS) guidelines.
(§2) D-Amphetamine sulphate (Sigma, St. Louis, Mo., U.S.A.) and atipamezole HCl (Orion Corporation, Orion Pharma, Turku, Finland) were dissolved in saline (0.9% NaCl) and administered subcutaneously (s.c.) in a 5 ml/kg volume.
(§3) The locomotor activity of the mice was measured in transparent standard polypropylene animal cages (38×22×15 cm) with transparent cover and aspen bedding on the floor. Test cages were placed middle of the photobeam frame system (Photobeam Activity System PAS, Cage Rack, San Diego Instruments, San Diego, Calif.). Computer control unit registered the interruptions of photobeams from 16 individual cages. Three different types of movements were monitored: 1) ambulations (large horizontal movements), 2) fine movements (smaller horizontal movements) and 3) rearings (vertical movements). Locomotor activity was measured at 5-min intervals for 2 h immediately after D-amphetamine or saline administrations.
At day nine, the effect of different atipamezole and amphetamine administrations to the locomotor activity on the chronic treatment groups were analysed. Used treatments were saline, 1 mg/kg atipamezole, 2 mg/kg D-amphetamine, 0.3 mg/kg atipamezole-2 mg/kg D-amphetamine and 1 mg/kg atipamezole-2 mg/kg D-amphetamine. Chronic treatment groups were saline-, atipamezole-, amphetamine- and atipamezole-amphetamine groups. Chronic groups were treated following schedule in Table 2.
All data are presented as mean±SEM. Statistical analysis were performed using SPSS 9.0 for Windows (SPSS, Chicago, Ill.). Separate repeated measures analyses of variance (ANOVA) were performed on each variable for each experiment grouped on time and treatment group. Results were analysed separately, because data were collected in separate experiments with different study design. When significance (P<0.05) between treatment groups were found comparisons at each time point (date or min) were analyzed by using LSD post-hoc test.

[2] = system: C57BL/6J strain male mice; experiment: Locomotor activity during chronic treatment (days 1-8), D-amphetamine sensitization schedule with atipamezole pre-treatment; type: in vivo
Method: The effects of atipamezole on the locomotor hyperactivity induced by repeated administration of D-amphetamine were studied in male mice.
as §1, §2, §3
D-amphetamine was administered subcutaneously (s.c.) at the dose of 2 mg/kg. Atipamezole was administered s.c. at the dose of 1 mg/kg 20 min before locomotor activity measurement.
In the chronic-treatment group mice were administrated during eight days to elicit provoked locomotor hyperactivity to D-amphetamine and the effect of the atipamezole to the locomotor activity. Mice groups in the chronic treatment schedule were saline, saline-amphetamine, amphetamine, atipamezole and atipamezole-amphetamine. A day before experiment, mice were habituated to the test environment. […] At days seven and eight, the produced locomotor hyperactivity and effect of a single exposure of D-amphetamine (saline-amphetamine-group) were analysed. […]
All data are presented as mean±SEM. […] Results were analysed separately, because data were collected in separate experiments with different study design. When significance (P<0.05) between treatment groups were found comparisons at each time point (date or min) were analyzed by using LSD post-hoc test.

SMILES | D-amphetamine-induced locomotor hyperactivity in sensitized mice ([1]; Day 9, chronic amphetamine group, atipamezole 0.3 mg/kg 20 min before D-amphetamine 2 mg/kg, P=0.005) | D-amphetamine-induced locomotor hyperactivity in sensitized mice ([1]; Day 9, chronic amphetamine group, atipamezole 1 mg/kg 20 min before D-amphetamine 2 mg/kg, P<0.001) | locomotor activity before saline and D-amphetamine challenge after chronic atipamezole ([1]; Day 9, chronic atipamezole group (1 mg/kg days 1-8)) | D-amphetamine induced locomotion, group atipamezole-amphetamine vs amphetamine-amphetamine ([1]; Day 9, chronic atipamezole-amphetamine group given atipamezole 1 mg/kg 20 min before D-amphetamine 2 mg/kg, P<0.001) | locomotor activity with D-amphetamine only at Day 9 after chronic atipamezole-amphetamine, compared to amphetamine-amphetamine group (development of sensitization) ([1]; Day 9, chronic atipamezole-amphetamine group given only D-amphetamine 2 mg/kg, P-0.026) | locomotor activity, atipamezole pre-treatment before D-amphetamine challenge compared D-amphetamine alone ([1]; Day 9, chronic saline group, atipamezole 0.3 mg/kg 20 min before D-amphetamine 2 mg/kg, P=0.016) | locomotor activity, atipamezole pre-treatment before D-amphetamine challenge compared D-amphetamine alone ([1]; Day 9, chronic saline group, atipamezole 1 mg/kg 20 min before D-amphetamine 2 mg/kg, P=0.364) | total ambulatory activity counts, atipamezole pre-treatment alone ([1]; Day 9, chronic saline group, atipamezole 1 mg/kg 20 min before saline, P=0.81) | D-amphetamine-induced locomotion, atipamezole-amphetamine vs amphetamine group ([2]; atipamezole 1 mg/kg s.c. 20 min before D-amphetamine 2 mg/kg s.c. over the course of exposure, Day 2 P<0.05, Days 3-8 P<0.001) | locomotor activity, atipamezole pre-treatment before saline challenge vs saline group ([2]; atipamezole 1 mg/kg s.c. daily for six days, 20 min before saline, Day 8, P=0.43) | development and expression of sensitization (motor overactivity) ([2]; given chronically in combination with D-amphetamine, in mice (summary statement)) | ambulatory sensitization during repeated administration ([1]; Day 9, chronic amphetamine group, D-amphetamine 2 mg/kg, P<0.001) | locomotor activity after D-amphetamine ([1]; Day 9, chronic saline group, D-amphetamine 2 mg/kg s.c., P<0.001 vs saline, not same level as amphetamine group (P<0.001)) | ambulatory activity compared to saline group ([2]; D-amphetamine 2 mg/kg s.c., six repeated administrations (days 1-4, 7, 8), 2-h counts, group amphetamine vs saline and saline-amphetamine at Day 8 P<0.001)
CCC1(c2c[nH]cn2)Cc2ccccc2C1 [Atipamezole, 4-(2-ethyl-2,3-dihydro-1H-inden-2-yl)-1H-imidazole] | clearly attenuated the D-amphetamine-induced locomotor hyperactivity | clearly attenuated the D-amphetamine-induced locomotor hyperactivity | elevation was not statistically significant | decreased significantly D-amphetamine induced locomotion | true reduction in the development of sensitization | amplified locomotor activity | had no effect | did not alter total ambulatory activity counts | decreased significantly D-amphetamine-induced locomotion | not statistical significant difference | reduced the development and expression of sensitization | – | – | –
C[C@H](N)Cc1ccccc1 [D-amphetamine] | – | – | – | – | – | – | – | – | – | – | – | developed strong ambulatory sensitization | significantly enhanced locomotor activity | progressive enhance in ambulatory activity
